Data as given in patent US20250074889A1, “Novel Aminobenzene Derivative Having Cancer Cell Growth Inhibitory Effect, and Preventive or Therapeutic Pharmaceutical Composition Containing Same as Active Ingredient” (Daewoong Pharmaceutical Co., Ltd., priority 2022, published 2025).

How the values were obtained:
Format in all cases: cell-based
[1] = test system: NCI-H226 human mesothelioma cell line; test: Cell growth inhibition test (CellTiter-Glo), NCI-H226; conditions: NCI-H226 cells
Procedure: (§1) The cell growth for the compounds prepared in Examples was measured by CellTiter-Glo® Luminescent Cell Viability (Promega, Catalog #G7571) method using NCI-H226 (addexbio), NCI-H28 (Korea Cell Line Bank) and MSTO-211H (elabscience) human mesothelioma cell lines. This evaluation method is a method in which when luciferase enzyme is activated by ATP flowing out from living cells, it reacts with a luciferin substrate, and the enzyme activity at this time is measured to confirm cell viability.
(§2) Specifically, NCI-H226, NCI-H28, and MSTO-211H cells were prepared in 100 μL of cell culture medium (RPMI medium, 10% FBS, 1% P/S, 4.5 g/L D-Glucose, 2.383 g/L HEPES Buffer, L-Glutamine, 1.5 g/L Sodium Bicarbonate, 110 mg/L Sodium pyruvate) in a white clear bottom 96-well microplate. The prepared plate was incubated in a 5% CO2 incubator at 37° C. for 24 hours, and then the previously prepared compounds of Examples were finally treated at concentrations of 0.001, 0.01, 0.1, 1, and 10 μM, which was repeated three times for all treatment solutions. The plates treated with the compounds of Examples were incubated in a 5% CO2 incubator at 37° C. 100 μL/well of the substrate aqueous solution containing luciferin was added to a white clear-bottom 96 well microplate, thereby initiating an enzyme reaction. The reaction was performed at room temperature in the dark for 10 minutes, and the luminescence was measured using a Flexstation3 multi-mode microplate reader. In accordance with the instructions for the CellTiter-Glo™ Luminescednt Cell Viability, the luciferase enzyme activity, which represents the amount of ATP, was measured by a chemiluminescence method, and the inhibitory activity of the compounds according to the present invention was calculated. The results of each compound were analyzed using Microsoft Excel, and the IC50 values were calculated using GraphPad Prism software.

[2] = test system: transcription factor TEAD; test: Activity inhibition test of transcription factor TEAD (ONE-Glo luciferase, TEAD reporter-MCF7 cell line); conditions: Homo sapiens; TEAD Reporter-MCF7 cells, 24 hours treatment, luciferase luminescence
Procedure: The transcription factor TEAD activity of the compounds prepared in Examples was measured by the ONE-Glo™ Luciferase assay (Promega, Catalog #E6110) method using the Hippo Pathway TEAD reporter-MCF7 recombinant cell line (BPS Bioscience, Catalog #60618).
Specifically, the TEAD Reporter-MCF7 cell line contains the firefly luciferase gene whose expression is regulated under the control of TEAD response elements in the MCF7, which is a human breast cancer cell line. In the cell line, a non-phosphorylated YAP/TAZ exists in the nucleus in a non-stressed condition, which continuously induces expression of the luciferase reporter.
TEAD Reporter-MCF7 cells were prepared in 100 μL of cell culture medium (MEM medium, 10% FBS, 1% P/S, 400 μg/mL Geneticin, 1% […], 1 mM NA pyruvate, 10 μg/mL Insulin) in a white clear bottom 96-well microplate. The prepared plate was incubated in a 5% CO2 incubator at 37° C. for 24 hours, and then the previously prepared compounds of Examples were finally treated at concentrations of 0.001, 0.01, 0.1, 1, and 10 µM, which were repeated three times for all treatment solutions. The plates treated with the compounds of Examples were incubated in a 5% CO2 incubator at 37° C. for 24 hours. 100 μL/well of the substrate aqueous solution containing luciferin was added to a white clear-bottom 96 well microplate, thereby initiating an enzyme reaction. The reaction was performed at room temperature for 5 minutes, and the luminescence (integration time 1000 ms) was measured using a Flexstation3 multi-mode microplate reader. In accordance with the instructions for the ONE-Glo™ Luciferase Assay, the luciferase enzyme activity, which represents the activity of the transcription factor TEAD, was measured by a chemiluminescence method, and the inhibitory activity of the compound according to the present invention was calculated. The results of each compound were analyzed using Microsoft Excel, and the IC50 values were calculated by GraphPad Prism software.

[3] = test system: NCI-H28 human mesothelioma cell line; test: Cell growth inhibition test (CellTiter-Glo), NCI-H28; conditions: NCI-H28 cells
Procedure: as §1, §2

[4] = test system: MSTO-211H human mesothelioma cell line; test: Cell growth inhibition test (CellTiter-Glo), MSTO-211H; conditions: MSTO-211H cells
Procedure: as §1, §2

For `C=CC(=O)Nc1ccc(NC2CCCCC2)c(-c2ccccc2)c1` [Example 1, N-(6-(cyclohexylamino)-[1,1′-biphenyl]-3-yl)acrylamide], the IC50 [1] was 132 nM and the IC50 [2] was 42 nM.
`C=CC(=O)Nc1ccc(NC2CCCCC2)c(-c2ccccn2)c1` [Example 2, N-(4-(cyclohexylamino)-3-(pyridin-2-yl)phenyl)acrylamide] gave an IC50 [1] of 46 nM and an IC50 [2] of 12.3 nM.
For `C=CC(=O)Nc1ccc(N[C@H]2CC[C@@H](C(F)(F)F)CC2)c(-c2ccccn2)c1` [Example 3, N-(3-(pyridin-2-yl)-4-((cis-4-(trifluoromethyl)cyclohexyl)amino)phenyl)acrylamide], the IC50 [1] was greater than 10000 nM and the IC50 [2] was 3.7 nM.
`C=CC(=O)Nc1ccc(Nc2ccc(C(F)(F)F)cn2)c(-c2ccccn2)c1` [Example 4, N-(3-(pyridin-2-yl)-4-((5-(trifluoromethyl)pyridin-2-yl)amino)phenyl)acrylamide] showed an IC50 [1] of 6 nM, an IC50 [2] of 17.8 nM and an IC50 [3] of 3310 nM. It also gave an IC50 [4] of 130 nM.
Work on `C=CC(=O)Nc1ccc(Nc2ncc(C(F)(F)F)cc2Cl)c(-c2ccccn2)c1` [Example 7, N-(4-((3-chloro-5-(trifluoromethyl)pyridin-2-yl)amino)-3-(pyridin-2-yl)phenyl)acrylamide] yielded an IC50 [1] of 122 nM and an IC50 [2] of 53.5 nM.
`C=CC(=O)Nc1ccc(Nc2cc(Cl)c(Cl)cn2)c(-c2ccccn2)c1` [Example 8, N-(4-((4,5-dichloropyridin-2-yl)amino)-3-(pyridin-2-yl)phenyl)acrylamide] gave an IC50 [1] of 14 nM and an IC50 [2] of 15.4 nM.
Compound `C=CC(=O)Nc1ccc(Nc2ncc(C(F)(F)F)cc2Cl)c(-c2cn(C)cn2)c1` [Example 9, N-(4-((3-chloro-5-(trifluoromethyl)pyridin-2-yl)amino)-3-(1-methyl-1H-imidazol-4-yl)phenyl)acrylamide] has an IC50 [1] of 26 nM and an IC50 [2] of 80 nM.
`C=CC(=O)Nc1ccc(Nc2cc(Cl)c(Cl)cn2)c(-c2cn(C)cn2)c1` [Example 10, N-(4-((4,5-dichloropyridin-2-yl)amino)-3-(1-methyl-1H-imidazol-4-yl)phenyl)acrylamide] was tested, and the IC50 [1] was 10 nM and the IC50 [2] was 23 nM.
In the case of `C=CC(=O)Nc1ccc(NCc2ccc(F)cc2)c(-c2ccccc2)c1` [Example 11, N-(6-((4-fluorobenzyl)amino)-[1,1′-biphenyl]-3-yl)acrylamide], the IC50 [1] is reported as 129 nM and the IC50 [2] is reported as 28.2 nM.
In the case of `C=CC(=O)Nc1ccc(NCc2ccc(F)cc2)c(-c2ccccn2)c1` [Example 12, N-(4-((4-fluorobenzyl)amino)-3-(pyridin-2-yl)phenyl)acrylamide], the IC50 [1] is reported as 1250 nM and the IC50 [2] is reported as 2.4 nM.
`C=CC(=O)Nc1ccc(Nc2cc(Cl)c(Cl)cn2)c(-c2ccncn2)c1` [Example 16, N-(4-((4,5-dichloropyridin-2-yl)amino)-3-(pyrimidin-4-yl)phenyl)acrylamide] gave an IC50 [1] of 148 nM and an IC50 [2] of 69.1 nM.
`C=CC(=O)Nc1ccc(NCCc2nccs2)c(/C=C/c2ccc(F)cc2)c1` [Example 23, (E)-N-(3-(4-fluorostyryl)-4-((2-(thiazol-2-yl)ethyl)amino)phenyl)acrylamide] was tested, and the IC50 [1] was 55 nM and the IC50 [2] was 48 nM.
In the case of `C=CC(=O)Nc1cnc(NCCc2nccs2)c(/C=C/c2ccc(F)cc2)c1` [Example 27, (E)-N-(5-(4-fluorostyryl)-6-((2-(thiazol-2-yl)ethyl)amino)pyridin-3-yl)acrylamide], the IC50 [1] is reported as 985 nM and the IC50 [2] is reported as 30 nM.
For `C=CS(=O)(=O)Nc1cnc(NCCc2nccs2)c(/C=C/c2ccc(F)cc2)c1` [Example 28], the IC50 [1] was 875 nM and the IC50 [2] was 28.6 nM.
`C=CC(=O)Nc1ccc(Nc2cc(C(F)(F)F)ccn2)c(-c2cn(C)cn2)c1` [Example 31, N-(3-(1-methyl-1H-imidazol-4-yl)-4-((4-(trifluoromethyl)pyridin-2-yl)amino)phenyl)acrylamide] showed an IC50 [2] of 314 nM, an IC50 [3] of 3110 nM and an IC50 [4] greater than 10000 nM.
For `C#Cc1ccc(Nc2ccc(NC(=O)C=C)cc2-c2ccn(C)n2)nc1` [Example 34, N-(4-((5-ethynylpyridin-2-yl)amino)-3-(1-methyl-1H-pyrazol-3-yl)phenyl)acrylamide], the IC50 [1] was 31.4 nM and the IC50 [2] was 5.7 nM.
For `C=CC(=O)Nc1cnc(Nc2ccc(C(F)(F)F)cc2)c(-c2cn(C)cn2)c1` [Example 41, N-(5-(1-methyl-1H-imidazol-4-yl)-6-((4-(trifluoromethyl)phenyl)amino)pyridin-3-yl)acrylamide], the IC50 [1] was 6 nM and the IC50 [2] was 10 nM.
Compound `C=CC(=O)Nc1ccc(Nc2ccc(C(F)(F)F)cc2)c(-c2ccn(C)n2)c1` [Example 42, N-(3-(1-methyl-1H-pyrazol-3-yl)-4-((4-(trifluoromethyl)phenyl)amino)phenyl)acrylamide] has an IC50 [1] of 4.7 nM and an IC50 [2] of 7 nM.
`C=CC(=O)Nc1ccc(Nc2ccc(C(F)(F)F)c(Cl)c2)c(-c2cn(C)cn2)c1` [Example 43, N-(4-((3-chloro-4-(trifluoromethyl)phenyl)amino)-3-(1-methyl-1H-imidazol-4-yl)phenyl)acrylamide] was tested, and the IC50 [1] was 7.4 nM and the IC50 [2] was 33 nM.
With `C=CC(=O)Nc1ccc(Nc2ccc(C(F)(F)F)c(F)c2F)c(-c2cn(C)cn2)c1` [Example 44, N-(4-((2,3-difluoro-4-(trifluoromethyl)phenyl)amino)-3-(1-methyl-1H-imidazol-4-yl)phenyl)acrylamide] the IC50 [1] was 3.9 nM and the IC50 [2] was 8 nM.
`C=CC(=O)Nc1ccc(Nc2ccc(OC(F)(F)F)cc2)c(-c2cn(C)cn2)c1` [Example 45, N-(3-(1-methyl-1H-imidazol-4-yl)-4-((4-(trifluoromethoxy)phenyl)amino)phenyl)acrylamide] was tested, and the IC50 [1] was 33.8 nM and the IC50 [2] was 113 nM.
`C=CC(=O)Nc1ccc(Nc2cc(F)c(C(F)(F)F)c(F)c2)c(-c2cn(C)cn2)c1` [Example 46, N-(4-((3,5-difluoro-4-(trifluoromethyl)phenyl)amino)-3-(1-methyl-1H-imidazol-4-yl)phenyl)acrylamide] was tested, and the IC50 [1] was 13.1 nM and the IC50 [2] was 28 nM.
For `C=CC(=O)Nc1ccc(Nc2ccc(Cl)cc2)c(-c2cn(C)cn2)c1` [Example 47, N-(4-((4-chlorophenyl)amino)-3-(1-methyl-1H-imidazol-4-yl)phenyl)acrylamide], the IC50 [1] was 3.3 nM and the IC50 [2] was 3.9 nM.
For `C=CC(=O)Nc1ccc(Nc2ccc(Br)c(C)n2)c(-c2cn(C)cn2)c1` [Example 48, N-(4-((5-bromo-6-methylpyridin-2-yl)amino)-3-(1-methyl-1H-imidazol-4-yl)phenyl)acrylamide], the IC50 [1] was 10.3 nM and the IC50 [2] was 45 nM.
`C=CC(=O)Nc1ccc(Nc2ccc(Cl)c(C)n2)c(-c2cn(C)cn2)c1` [Example 49, N-(4-((5-chloro-6-methylpyridin-2-yl)amino)-3-(1-methyl-1H-imidazol-4-yl)phenyl)acrylamide] showed an IC50 [1] of 18.8 nM and an IC50 [2] of 258 nM.
In the case of `C=CC(=O)Nc1ccc(Nc2ccc(Cl)cn2)c(-c2cn(C)cn2)c1` [Example 50, N-(4-((5-chloropyridin-2-yl)amino)-3-(1-methyl-1H-imidazol-4-yl)phenyl)acrylamide], the IC50 [1] is reported as 10.4 nM and the IC50 [2] is reported as 88 nM.
For `C=CC(=O)Nc1ccc(Nc2cc(C(F)(F)F)ccn2)c(-c2ccn(C)n2)c1` [Example 54, N-(3-(1-methyl-1H-pyrazol-3-yl)-4-((4-(trifluoromethyl)pyridin-2-yl)amino)phenyl)acrylamide], the IC50 [1] was 11.8 nM and the IC50 [2] was 23.4 nM.
Work on `C=CC(=O)Nc1ccc(Nc2ncc(C(F)(F)F)cc2F)c(-c2ccn(C)n2)c1` [Example 56, N-(4-((3-fluoro-5-(trifluoromethyl)pyridin-2-yl)amino)-3-(1-methyl-1H-pyrazol-3-yl)phenyl)acrylamide] yielded an IC50 [1] of 11 nM and an IC50 [2] of 5 nM.
